Reference: patent US11510928B2, “Use of mirtazapine in the treatment of inflammatory disorders, autoimmune disease and PBC” (UTI Limited Partnership, priority 2017, dated 2022)

Experiments:
[1] = tested on: patients registered in THIN database; assay: THIN cohort study 1995-2017: incidence of IMIDs according to mirtazapine exposure (Example 9); format: in vivo, human; details: THIN 1995-2017
Source text: Data source: THIN is a primary care patient oriented electronic medical record (EMR) database. It is one of the largest medical databases in the UK, consisting of prospectively gathered electronic medical records from over 11.1 million patients (˜3.7 million active patients), the equivalent to 75.6 million patient years, from more than 560 general practices in the UK, covering 6.2% of the UK population. All data elements are fully anonymised and validated by Cegedim Strategic Data (CSD)-Medical Research UK. […] Data from participant general practitioners across the UK are exported to THIN administrators and the database is updated every 3 months.
Study cohort: All adult patients (18 years) registered in THIN database starting from Jan. 1, 1995. Since mirtazapine was approved and available in the UK, Europe, and US markets by 1996, all patients who were prescribed mirtazapine with a prescription duration longer than 30 days, were defined as incident cases. We assessed the hazard of developing each studied IMID (CD, UC, psoriasis, MS or RA) separately. […] Similarly, in the same MS cohort, if a patient develops another IMID of interest prior to a diagnosis of MS, the index date of outcome will be the date of MS diagnosis. In all of our cohorts, we will follow patients from study start date until an incident diagnosis of IMID of interest, death, loss to follow-up or end of follow-up.
Inclusion and exclusion criteria: Patients should not have any interruption of registration or leave of practice. Cases with mirtazapine prescription duration of less than 30 days or unknown duration were excluded from the study.
Exposure variable of interest: Our primary exposure variable was mirtazapine. We used Read codes to identify mirtazapine usage, duration, dose, and start date. Our primary outcome was the incident diagnosis of one of the following conditions: Crohn's disease, multiple sclerosis, psoriasis, rheumatoid arthritis, and ulcerative colitis during study follow-up period (1995-2017).
a) Demographic covariates: Pre-specified covariates include age at diagnosis; sex; and cigarette smoking status is defined either (1) current smoker, coded for smoking within 12 months of the index date (condition diagnosis date); (2) ex-smoker, coded for smoking before but not within 12 months of the index date; or (3) never smoked, coded either as a lifetime non-smoker or not recorded as a smoker; alcohol consumption classified as current, former, never consumed alcohol, or unknown status at diagnosis; body mass index (weight in kg and height in m2); and socioeconomic status measured by the Mosaic scale which is a consumer classification scale that captures demographics, lifestyles, and behaviours (10 classes).
b) Depression: Read codes were used to identify patients with major depressive disorder (MDD). Read codes associated with only symptoms of depression, bipolar disorder, mania or hypomania were excluded. MDD was defined as (1) never diagnosed with MDD; (2) past MDD diagnosis prior to 90 days from index date; or (3) current MDD diagnosis if a diagnosis was made within 90 days before or after the index date.
c) Comorbidities: We used the Quality and Outcomes Framework (QOF) Read codes to assess for the following comorbidities: asthma, atrial fibrillation, cancer, chronic kidney disease (stages 3-5), chronic obstructive pulmonary disease, coronary heart disease, dementia, diabetes, epilepsy, heart failure, hypertension, and hypothyroid. […]

hepatic immune cells = assay: Hepatic immune cell phenotyping by flow cytometry after mirtazapine treatment; format: in vivo, mouse
Description: Male 8-10 week old C57BL/6 mice (Jackson Labs, Bar Harbor, Me.) were used. All procedures were approved by the University of Calgary Animal Care Committee (protocol numbers AC14-0129 and AC14-0128) and were performed in accordance with the guidelines of the Canadian Council on Animal Care. To delineate the impact of mirtazapine treatment upon liver immune cell numbers and phenotype, and upon cytokine/chemokine networks within the liver, mice were treated with mirtazapine 1-20 mg/kg intraperitoneally^13-15. Mirtazapine was suspended in 1% aqueous solution of Tween 80, whereas the control group received 1% aqueous solution of Tween 80. […] The detailed experimental protocols, lists of antibodies and reagents used, flow cytometry gating, and immune cell phenotyping strategies, are described herein. […] Isolated hepatic leukocytes were subjected to direct immunofluorescence analyses using multicolor flow cytometry staining as previously described. Samples were acquired either using a FACScan flow cytometer (Becton Dickinson, Mountain View, Calif.) or AttuneTM Acoustic Focusing flow cytometer (Applied Biosytems, […], Burlington, ON). Data were analyzed using FlowJo® software (Treestar, Ashland, Oreg.). Gating proceeded as follows: gating of live cells and exclusion of duplet cells followed by gating on forward scatter (FSC) and side scatter (SSC) areas to identify regions appropriate to define live leukocytes. Within the leukocyte gate, the following cell subsets were identified: Regulatory T cells (CD4^+CD25^+Foxp3^+), monocytes (CD11b^+Ly6C^+), dendritic cells (CD11b^+CD11c^+), B Cells (CD3^-IgM^+), B1a B cells (IgM^+CD5^+CD^11b^+), B1b B cells (IgM^+CD5^-CD11b^+), and B2 B cells as (IgM^+CD5^-CD11b^-). Fluorescence-minus-one (FMO) controls were used for the accurate designation of cells with fluorescence above background levels. Appropriate isotype controls were used to determine the specificity of all antibodies used. Cell numbers were calculated based on the percentage of cells found in the gate of interest, and total cell numbers isolated from each liver.

[2] = 20 mg/kg ip, 3 hrs post-treatment

CN1CCN2c3ncccc3Cc3ccccc3C2C1 (stereo not shown) [Mirtazapine]
Adjusted incidence rate ratio, Multiple sclerosis ([1]; N = 371, P = 0.006): 0.80 (0.71-0.88)
Adjusted incidence rate ratio, Crohn's Disease ([1]; N = 490, P = 0.89): 1.00 (0.93-1.07)
Adjusted incidence rate ratio, Ulcerative Colitis ([1]; N = 1375, P = 0.002): 0.84 (0.81-0.88)
Adjusted incidence rate ratio, R. arthritis ([1]; N = 1792, P < 0.001): 0.55 (0.51-0.60)
Adjusted incidence rate ratio, Psoriasis ([1]; N = 5181, P = 0.002): 0.93 (0.88-0.98)
Cellular expression levels of FOXP3 in hepatic Tregs (MFI) (hepatic immune cells; [2]): enhanced cellular expression levels of FOXP3
Hepatic CD11b+CD11c+ dendritic cells as % of total CD11b+ cells (hepatic immune cells; [2]): relatively enriched
Numbers of Tregs (CD4+CD25+FOXP3+) within the liver (hepatic immune cells; [2]): significantly increased numbers of Tregs
Hepatic numbers of CD73 expressing T cells (CD3+CD73+) (hepatic immune cells; 5 hr (FIG. 11)): increases hepatic numbers of CD73 expressing T cells
CXCR3+CD73+ B1a cells in the liver (hepatic immune cells; 5 hrs post-treatment): significantly increased recruitment
Expression intensity of FOXP3 per cell (MFI) (hepatic immune cells; 5 hrs post-treatment): significantly increased
Hepatic B1a cells (hepatic immune cells; 5 hrs post-treatment): significant increase
Hepatic B1b cells (hepatic immune cells; 5 hrs post-treatment): remained unchanged
Hepatic B2 cells (hepatic immune cells; 5 hrs post-treatment): decrease
Increase in hepatic numbers of CD4+CD25+FOXP3+ T cells (Tregs) (hepatic immune cells; 5 hrs post-treatment): ~2 fold
Reduction of hepatic LY6Chi monocyte population (hepatic immune cells; 5 hrs post-treatment): ~2.5 fold
Total hepatic leukocyte numbers (CD45+) (hepatic immune cells; 5 hrs post-treatment): did not alter total overall hepatic leukocyte numbers
Total numbers of hepatic monocytes (CD11b+LY6C+) (hepatic immune cells; 5 hrs post-treatment): significant reduction
Hepatic numbers of repair monocytes (CD11b+Ly6Clow) (hepatic immune cells; 5 hrs post-treatment (FIG. 4H)): significantly reduces
CXCL10 expression in hepatic monocytes and dendritic cells (MFI) (hepatic immune cells; flow cytometry, vs vehicle): increased CXCL10 expression
Hepatic CD11b+Ly6Chi (inflammatory) monocytes (hepatic immune cells; pilot study, 20 mg/kg, 4 hrs): rapid striking reduction
Hepatic CD11b+Ly6Clo (anti-inflammatory/repair) monocyte numbers (hepatic immune cells; pilot study, 20 mg/kg, 4 hrs): no change
